This note sets out measurements from patent US10766888B1, “HMOX1 inducers” (Mitobridge Inc., priority 2019, dated 2020).

Where a name gives a salt, the structure may show the parent alone.

This data set has as its system Human Heme Oxygenase-1 (HMOX-1). Description: ELISA assay to measure human heme oxygenase-1 (HMOX-1) in HepG2 lysate. Format: cell-based. The settings on record: for EC50: human HMOX1 protein level in HepG2 lysate, * = average of 2 or more EC50 determinations, NA = Not Active, read-out: EC50. The method, then: Example 143. ELISA Assay to Measure Human Heme Oxygenase-1 (HMOX-1) in HepG2 lysate
Reagents and Technical Notes:
ELISA capture antibody, standard HO-1, detection antibody and streptavidin HRP were supplied in the DuoSet IC Human total HO-1 ELISA from R&D systems (DYC3776-2). The substrate cocktail was KPL LumiGLO reserve Chemiluminescent Substrate (54-71-00). PBS was Corning Cellgro Cell Culture (21-040-CV). 10×PBS+0.05% tween20 (PBST) was from KPL.
All incubations of the plate were at room temperature (20° C.) in a closed drawer.
The ELISA plate was processed manually. All loadings were with a multichannel pipet. Plates were emptied by shaking into the sink and tapping onto paper towels to remove any remaining reagent. Plate washing was accomplished by loading all wells with PBS+0.05% tween20 (PBST) using a squirt bottle, shaking the PBST out and tapping the plate onto paper towels.
Preparation of the ELISA Plate:
• 1. anti-HO-1 capture antibody was 1440 μg/ml after reconstitution in PBS. This antibody was diluted to 8 μg/ml in PBS and 50 μl per well was added to a 384 well greiner “lumitrac 200” plate. Incubated overnight. • 2. The plate was emptied and 100 μl PBS+1% BSA added to all wells. Incubated 90 minutes at room temperature. Preparation of HepG2 Lysate: • 1. Cells were cultured in a 96-well tissue culture plate washed with PBS and then the plate frozen at −70° C. overnight. Plates were allowed to warm to ice temperature in an ice bucket. 20 μl of PBS, 0.5% Triton X100, 1 mM EDTA with 1×HALT™ protease inhibitors was added to each well and the plates incubated on ice for 1 hour. • 2. The lysates were frozen at −20° C. overnight. Measurement of HMOX1 (“HO-1”) • 1. In a polypropylene 384 well plate, human HO-1 (after reconstitution in PBS+0.5% Triton+1 mM EDTA) was serially diluted from 20 ng/ml 2-fold in PBS+0.5% triton-X100, 1 mM EDTA to make a 12-point standard curve including a zero point. • 2. In a polypropylene 96 well plate, HepG2 lysate was diluted 1 to 20 in Diluent #4 from DUOSET kit in which the assay standard is also diluted. • 3. The PBS+1% BSA was emptied from the ELISA plate and 30 μl of all samples and standards were added (duplicates recommended). The plate was incubated 90 minutes. • 4. Emptied plate and washed 4 times with PBST. • 5. Diluted HO-1 detection antibody to 200 ng/ml in PBS+1% BSA and added 30 μl to all wells. Incubated 90 minutes. • 6. Emptied plate and washed 4 times with PBST. • 7. Added 30 μl streptavidin HRP at 1/200 in PBS+1% BSA (stock streptavidin concentration not specified) to all wells. Incubated 30 minutes. • 8. Emptied plate and washed 4 times with PBST. • 9. Diluted Lumiglo reserve reagent two parts buffer to one part lumiglo substrate. Added 30 μl to all wells. Incubated 5 minutes. • 10. Measured chemiluminescence on spectramax M5 using 150 ms integration.
Table 1 below lists EC50 and fold changes of human HMOX1 protein levels relative to DMSO control upon treatment with representative compounds.
(In general: An ELISA detects its analyte on a solid surface through an enzyme-linked reagent.)

As to `COCCNC(=O)c1ccc2c(c1)nc(Nc1nc3cc(C)ccc3o1)n2C` [Example 65, N-(2-methoxyethyl)-1-methyl-2-((5-methylbenzo[d]oxazol-2-yl)amino)-1H-benzo[d]imidazole-5-carboxamide], the EC50 (as a rule, the concentration at which the effect is half-maximal) stood at 1200 nM. Besides, the “Maximum Fold induction” value (fold change of human HMOX1 protein level relative to DMSO control, HepG2) was 15.42 fold. In the case of `Cn1c(Nc2nc3cc(F)ccc3o2)nc2cc(C(=O)O)ccc21` [Example 66, 2-((5-fluorobenzo[d]oxazol-2-yl)amino)-1-methyl-1H-benzo[d]imidazole-5-carboxylic acid], the concentration giving a half-maximal response (EC50) turned out to be 5400 nM. On the same count and under the same terms, for `Cn1c(Nc2nc3ccc(F)cc3o2)nc2cc(C(=O)O)ccc21` [Example 68, 2-((6-fluorobenzo[d]oxazol-2-yl)amino)-1-methyl-1H-benzo[d]imidazole-5-carboxylic acid] the value was 2000 nM.

As for `Cn1c(Nc2nc3ccc(OC(F)(F)F)cc3o2)nc2cc(C(=O)O)c(F)cc21` [Example 70, 6-fluoro-1-methyl-2-((6-(trifluoromethoxy)benzo[d]oxazol-2-yl)amino)-1H-benzo[d]imidazole-5-carboxylic acid], the EC50 was found to be 3200 nM.

For the compound `CN(C)CCn1c(Nc2nc3ccc(OC(F)(F)F)cc3o2)nc2cc(C(=O)O)ccc21` [Example 74, 1-(2-(dimethylamino)ethyl)-2-((6-(trifluoromethoxy)benzo[d]oxazol-2-yl)amino)-1H-benzo[d]imidazole-5-carboxylic acid], the EC50 was determined as 3600 nM. Same read-out and setting: to `COCCNC(=O)c1ccc2c(c1)nc(Nc1nc3cc(OC(F)(F)F)ccc3[nH]1)n2CCOC` [Example 76, N,1-bis(2-methoxyethyl)-2-((5-(trifluoromethoxy)-1H-benzo[d]imidazol-2-yl)amino)-1H-benzo[d]imidazole-5-carboxamide] belongs 2700 nM.

As to `COCCn1c(Nc2nc3ccc(OC(F)(F)F)cc3o2)nc2cc(C(=O)O)ccc21` [Example 77, 1-(2-methoxyethyl)-2-((6-(trifluoromethoxy)benzo[d]oxazol-2-yl)amino)-1H-benzo[d]imidazole-5-carboxylic acid], the EC50 is 4100 nM. With `COCCNC(=O)c1ccc2c(c1)nc(Nc1nc3ccc(OC(F)(F)F)cc3o1)n2CCOC` [Example 78, N,1-bis(2-methoxyethyl)-2-((6-(trifluoromethoxy)benzo[d]oxazol-2-yl)amino)-1H-benzo[d]imidazole-5-carboxamide], the EC50 is 2200 nM. Same read-out and setting: to `COCCNC(=O)c1ccc2c(c1)nc(Nc1nc3ccc(OC(F)(F)F)cc3o1)n2C1CCOCC1` [Example 80, N-(2-methoxyethyl)-1-(tetrahydro-2H-pyran-4-yl)-2-((6-(trifluoromethoxy)benzo[d]oxazol-2-yl)amino)-1H-benzo[d]imidazole-5-carboxamide] belongs 1900 nM; to `COCCNC(=O)c1ccc2c(c1)nc(Nc1nc3cc(OC(F)(F)F)ccc3[nH]1)n2C1CCOCC1` [Example 81, N-(2-methoxyethyl)-1-(tetrahydro-2H-pyran-4-yl)-2-((5-(trifluoromethoxy)-1H-benzo[d]imidazol-2-yl)amino)-1H-benzo[d]imidazole-5-carboxamide], 2300 nM. With `Cn1c(Nc2nc3cc(Cl)ccc3[nH]2)nc2cc(C(=O)O)ccc21` [Example 82, 2-((5-chloro-1H-benzo[d]imidazol-2-yl)amino)-1-methyl-1H-benzo[d]imidazole-5-carboxylic acid], the concentration giving a half-maximal response (EC50) came to 2400 nM.

For `COCCNC(=O)c1ccc2c(c1)nc(Nc1nc3cc(Cl)ccc3[nH]1)n2C` [Example 83, 2-((5-chloro-1H-benzo[d]imidazol-2-yl)amino)-N-(2-methoxyethyl)-1-methyl-1H-benzo[d]imidazole-5-carboxamide], the EC50 was found to be 1800 nM.

As for `CCn1c(Nc2nc3ccc(OC(F)(F)F)cc3o2)nc2cc(C(=O)O)ccc21` [Example 84, 1-ethyl-2-((6-(trifluoromethoxy)benzo[d]oxazol-2-yl)amino)-1H-benzo[d]imidazole-5-carboxylic acid], the EC50 amounted to 5400 nM. Same read-out and setting: for `CCn1c(Nc2nc3ccc(OC(F)(F)F)cc3o2)nc2cc(C(=O)NCCOC)ccc21` [Example 85, 1-ethyl-N-(2-methoxyethyl)-2-((6-(trifluoromethoxy)benzo[d]oxazol-2-yl)amino)-1H-benzo[d]imidazole-5-carboxamide] the value was 1300 nM; for `O=C(O)c1ccc2c(c1)nc(Nc1nc3ccc(OC(F)(F)F)cc3o1)n2CC1CCOC1` (centres unmarked) [Example 87, 1-((tetrahydrofuran-3-yl)methyl)-2-((6-(trifluoromethoxy)-benzo[d]oxazol-2-yl)amino)-1H-benzo[d]imidazole-5-carboxylic acid], 6800 nM; for `COCCNC(=O)c1ccc2c(c1)nc(Nc1nc3ccc(OC(F)(F)F)cc3o1)n2CC1CCOC1` (centres unmarked) [Example 88, N-(2-methoxyethyl)-1-((tetrahydrofuran-3-yl)methyl)-2-((6-(trifluoromethoxy)benzo[d]oxazol-2-yl)amino)-1H-benzo[d]imidazole-5-carboxamide], 1500 nM.

On to `COCCNC(=O)c1ccc2c(c1)nc(Nc1nc3ccc(OC(F)(F)F)cc3o1)n2CCS(C)(=O)=O` [Example 90, N-(2-methoxyethyl)-1-(2-(methylsulfonyl)ethyl)-2-((6-(trifluoromethoxy)benzo[d]oxazol-2-yl)amino)-1H-benzo[d]imidazole-5-carboxamide], for which the EC50 came to 4800 nM. Still for that read-out and setting: to `O=C(NCCO)c1ccc2c(c1)nc(Nc1nc3ccc(OC(F)(F)F)cc3o1)n2CC1(O)COC1` [Example 95, N-(2-hydroxyethyl)-1-((3-hydroxyoxetan-3-yl)methyl)-2-((6-(trifluoromethoxy)benzo[d]oxazol-2-yl)amino)-1H-benzo[d]imidazole-5-carboxamide] belongs 1600 nM. Same read-out and setting: to `Cn1c(Nc2nc3ccc(Cl)cc3o2)nc2cc(C(=O)O)ccc21` [Example 96, 2-((6-chlorobenzo[d]oxazol-2-yl)amino)-1-methyl-1H-benzo[d]imidazole-5-carboxylic acid] belongs 2800 nM.

In the case of `Cn1c(Nc2nc3ccc(OCC(F)(F)F)cc3o2)nc2cc(C(=O)O)ccc21` [Example 98, 1-methyl-2-((6-(2,2,2-trifluoroethoxy)benzo[d]oxazol-2-yl)amino)-1H-benzo[d]imidazole-5-carboxylic acid], the EC50 is 4100 nM.

For the compound `Cn1c(Nc2nc3ccc(OCCO)cc3o2)nc2cc(C(=O)NCCN)ccc21` [Example 105, N-(2-aminoethyl)-2-((6-(2-hydroxyethoxy)benzo[d]oxazol-2-yl)amino)-1-methyl-1H-benzo[d]imidazole-5-carboxamide hydrochloride], the EC50 amounted to 4100 nM.

In the case of `Cn1c(Nc2nc3cc(F)c(C(F)(F)F)cc3o2)nc2cc(C(=O)O)ccc21` [Example 107, 2-((5-fluoro-6-(trifluoromethyl)benzo[d]oxazol-2-yl)amino)-1-methyl-1H-benzo[d]imidazole-5-carboxylic acid], the EC50 is 4500 nM. Turning to `Cn1c(Nc2nc3ccc(C4CC4)cc3o2)nc2cc(C(=O)O)ccc21` [Example 115, 2-((6-cyclopropylbenzo[d]oxazol-2-yl)amino)-1-methyl-1H-benzo[d]imidazole-5-carboxylic acid], the EC50 came out at 6200 nM. With `COCCNC(=O)c1ccc2c(c1)nc(Nc1nc3ccc(C4CC4)cc3o1)n2C` [Example 116, 2-((6-cyclopropylbenzo[d]oxazol-2-yl)amino)-N-(2-methoxyethyl)-1-methyl-1H-benzo[d]imidazole-5-carboxamide], the 50% effective concentration (EC50) is 3000 nM.

Consider `Cn1c(Nc2nc3cc(C(=O)NCCOCCO)ccc3o2)nc2ccccc21` [Example 118, N-(2-(2-hydroxyethoxy)ethyl)-2-((1-methyl-1H-benzo[d]imidazol-2-yl)amino)benzo[d]oxazole-5-carboxamide], for which the EC50 worked out at 8000 nM.
